pEC50: −log10 of the molar value. Counter-ions that a name gives are not always drawn. Like-named read-outs stand apart in the source and are kept apart here.
Assays:
Format in all cases: cell-based
[1] = test system: human hepatocellular carcinoma cell line SNU398; assay: Inhibition of cell proliferation (GI50) in SNU398 cells; details: SNU-398, Table IV, read-out: GI50 in Multi-Cancer Cells SNU398
Experimental: (§1) Human breast cancer cell lines T-47D, MX-1 and MDAMB435, human colon cancer cell line HT29, and human lung cancer cell line H1299 were grown and harvested as in Example 75. An aliquot of […] of cells (4.4×10^4 cells/mL) was added to a well of a 96-well microtiter plate containing 5 μL of a 10% DMSO in RPMI-1640 media solution containing 10 nM to 100 μM of N-(2,5-dimethoxyphenyl)-2-methylthieno[3,2-d]pyrimidin-4-amine (1 nM to 10 μM final). An aliquot of 45 μL of cells was added to a well of a 96-well microtiter plate containing 5 μL of a 10% DMSO in RPMI-1640 media solution without compound as the control sample for maximal cell proliferation (Lmax). The samples were mixed by agitation and then incubated at 37° C. for 48 h in a 5% CO2-95% humidity incubator. After incubation, the samples were removed from the incubator and 25 μL of CellTiter-Glo™ reagent (Promega) was added. The samples were mixed by agitation and incubated at room temperature for 10-15 min. Plates were then read using a luminescent plate reader (Model SPECTRAfluor Plus, Tecan) to give Ltest values.
(§2) Baseline for GI50 (dose for 50% inhibition of cell proliferation) of initial cell numbers was determined by adding an aliquot of 45 μL of cells or 45 μL of media, respectively, to wells of a 96-well microtiter plate containing 5 μL of a 10% DMSO in RPMI-1640 media solution. The samples were mixed by agitation and then incubated at 37° C. for 0.5 h in a 5% CO2-95% humidity incubator. After incubation, the samples were removed from the incubator and 25 μL of CellTiter-Glo™ reagent (Promega) was added. The samples were mixed by agitation and incubated at 37° C. for 10-15 min at room temperature in a 5% CO2-95% humidity incubator. Fluorescence was read as above, (LStart) defining luminescence for initial cell number used as baseline in GI50 determinations.
(§3) GI50 (dose for 50% inhibition of cell proliferation) is the concentration where [(LTest−Lstart)/(LMax−Lstart)]=0.5.
(§4) Several compounds were tested in multi cancer cell lines, including human breast cancer cell lines T-47D, MX-1, SKBR3 and MDAMB435, human hepatocellular carcinoma cell line SNU398, human colon carcinoma cell line HCT116, human sarcoma cell line MES-SA and multi-drug resistant (MDR) human sarcoma cell line MES-SA/ADR, murine leukemia cell line P388 and multi-drug resistant (MDR) murine leukemia cell line P388ADR, and the data are summarized in Table IV.

[2] = test system: multi-drug resistant (MDR) murine leukemia cell line P388ADR; assay: Inhibition of cell proliferation (GI50) in P388/ADR cells; details: Mus musculus, Table IV, read-out: GI50 in Multi-Cancer Cells P388/ADR
Experimental: as §1, §2, §3, §4

[3] = test system: human breast cancer cell line MX-1; assay: Inhibition of cell proliferation (GI50) in MX-1 cells; details: MX1 cells
Experimental: as §1, §2, §3

[4] = test system: human breast cancer cell line T-47D; assay: Caspase cascade activation (DEVD-R110 fluorogenic substrate) in T-47D cells; details: Homo sapiens, T47D
Experimental: (§5) Human breast cancer cell line T-47D, human lung cancer cell line H1299, human hepatocellular carcinoma cell line SNU398, human colon carcinoma cell line HCT116 were grown according to media component mixtures designated by American Type Culture Collection+10% FCS (Invitrogen Corporation), in a 5% CO2-95% humidity incubator at 37° C. T-47D and H1299 cells were maintained at a cell density between 50 and 80% confluency at a cell density of 0.1 to 0.6×10^6 cells/mL. Cells were harvested at 600×g and resuspended at 0.65×10^6 cells/mL into appropriate media+10% FCS. An aliquot of 22.5 μL of cells was added to a well of a 384-well microtiter plate containing 2.5 μL of a 10% DMSO in RPMI-1640 media solution containing 0.16 to 100 μM of N-(2,5-dimethoxyphenyl)-2-methylthieno[3,2-d]pyrimidin-4-amine or other test compound (0.016 to 10 μM final). An aliquot of 22.5 μL of cells was added to a well of a 384-well microtiter plate containing 2.5 μL of a 10% DMSO in RPMI-1640 media solution without test compound as the control sample. The samples were mixed by agitation and then incubated at 37° C. for 24 h or 48 h in a 5% CO2-95% humidity incubator. After incubation, the samples were removed from the incubator and 25 μL of a solution containing 14 μM of N-(Ac-DEVD)-N′-ethoxycarbonyl-R110 (SEQ ID NO.:1) fluorogenic substrate (Cytovia, Inc.; WO99/18856), 20% sucrose (Sigma), 20 mM DTT (Sigma), 200 mM NaCl (Sigma), 40 mM Na PIPES buffer pH 7.2 (Sigma), and 500 μg/mL lysolecithin (Calbiochem) was added. The samples were mixed by agitation and incubated at room temperature. Using a fluorescent plate reader (Model SPECTRAfluor Plus, Tecan), an initial reading (T=0) was made approximately 1-2 min after addition of the substrate solution, employing excitation at 485 nm and emission at 530 nm, to determine the background fluorescence of the control sample. After the 3 h incubation, the samples were read for fluorescence as above (T=3 h).
(§6) The Relative Fluorescence Unit values (RFU) were used to calculate the sample readings as follows: RFU(T=3h)−Control RFU(T=O)=Net RFU(T=3h)
(§7) The activity of caspase cascade activation was determined by the ratio of the net RFU value for N-(2,5-dimethoxyphenyl)-2-methylthieno[3,2-d]pyrimidin-4-amine or other test compound to that of control samples. The EC50 (nM) was determined by a sigmoidal dose-response calculation (Prism 3.0, GraphPad Software Inc.).

[5] = test system: human breast cancer cell line T-47D; assay: Inhibition of cell proliferation (GI50, CellTiter-Glo) in T-47D cells; details: T47D cells
Experimental: as §1, §2, §3

[6] = test system: human sarcoma cell line MES-SA; assay: Inhibition of cell proliferation (GI50) in MES-SA cells; details: Table IV, read-out: GI50 in Multi-Cancer Cells MES-SA
Experimental: as §1, §2, §3, §4

[7] = test system: murine leukemia cell line P388; assay: Inhibition of cell proliferation (GI50) in P388 cells; details: Mus musculus, Table IV, read-out: GI50 in Multi-Cancer Cells P388
Experimental: as §1, §2, §3, §4

[8] = test system: human colon carcinoma cell line HCT116; assay: Caspase cascade activation in HCT116 cells; details: Homo sapiens, HCT-116, 48 h, read-out: Caspase activation Potency EC50 HCT116 (48 h)
Experimental: as §5, §6, §7

[9] = test system: multi-drug resistant (MDR) human sarcoma cell line MES-SA/ADR; assay: Inhibition of cell proliferation (GI50) in MES-SA/ADR cells; details: Table IV, read-out: GI50 in Multi-Cancer Cells MES-SA/ADR
Experimental: as §1, §2, §3, §4

[10] = test system: human breast cancer cell line MDAMB435; assay: Inhibition of cell proliferation (GI50) in MDAMB435 cells
Experimental: as §1, §2, §3

[11] = test system: human hepatocellular carcinoma cell line SNU398; assay: Caspase cascade activation in SNU398 cells; details: Homo sapiens, SNU-398, 48 h, read-out: Caspase activation Potency EC50 SNU398 (48 h)
Experimental: as §5, §6, §7

[12] = test system: human breast cancer cell line SKBR3; assay: Inhibition of cell proliferation (GI50) in SKBR3 cells; details: SK-BR-3, Table IV, read-out: GI50 in Multi-Cancer Cells SKBR3
Experimental: as §1, §2, §3, §4

[13] = test system: human colon carcinoma cell line HCT116; assay: Inhibition of cell proliferation (GI50) in HCT116 cells; details: HCT-116, Table IV, read-out: GI50 in Multi-Cancer Cells HCT116
Experimental: as §1, §2, §3, §4

[14] = test system: human lung cancer cell line H1299; assay: Inhibition of cell proliferation (GI50) in H1299 cells; details: NCI-H1299, Table III, 48 h
Experimental: as §1, §2, §3

[15] = test system: human lung cancer cell line H1299; assay: Caspase cascade activation in H1299 cells; details: NCI-H1299, 24 h, read-out: Caspase activation Potency EC50 H1299 (24 h)
Experimental: as §5, §6, §7

[16] = test system: human colon cancer cell line HT29; assay: Inhibition of cell proliferation (GI50) in HT29 cells; details: HT-29, Table III, 48 h
Experimental: as §1, §2, §3

[17] = Table IV, read-out: GI50 in Multi-Cancer Cells MX1
[18] = 24 h, T47D cells, 24 h, read-out: Caspase activation Potency EC50 T47D (24 h)
[19] = 48 h, T-47D cells, 48 h, read-out: Caspase activation Potency EC50 T-47D (48 h)
[20] = Table IV, read-out: GI50 in Multi-Cancer Cells T47D
[21] = MDA-MB-435, Table IV, read-out: GI50 in Multi-Cancer Cells MDAMB435

SMILES	GI50 [1]	GI50 [2]	GI50 [3, 17]	pEC50 [4, 18]	pEC50 [4, 19]	GI50 [5, 20]	GI50 [6]	GI50 [7]	pEC50 [8]	GI50 [9]	GI50 [10, 21]	pEC50 [11]	GI50 [12]	GI50 [13]	GI50 [14]	GI50 ([3]; Table III, 48 h, read-out: GI50 in Cancer Cells MX1)	pEC50 [15]	GI50 ([5]; Table III, 48 h, read-out: GI50 in Cancer Cells T47D)	GI50 ([10]; MDA-MB-435, Table III, 48 h, read-out: GI50 in Cancer Cells MDAMB435)	GI50 [16]
COc1cc(Nc2ncnc3ccsc23)cc(-n2cnnn2)c1 [Example 61, N-(3-Methoxy-5-(1H-tetrazol-1-yl)phenyl)thieno[3,2-d]pyrimidin-4-amine]	299 nM	199 nM	791 nM	6.45	6.54	398 nM	836 nM	280 nM	6.54	767 nM	61 nM	6.86	600 nM	400 nM						
COc1cc(Nc2ncnc3ccsc23)cc(N(C)C)c1 [Example 69, N-(3-Dimethylamino-5-methoxyphenyl)thieno[3,2-d]pyrimidin-4-amine]	276 nM	249 nM	9850 nM		6.72	133 nM	600 nM	381 nM	6.49	520 nM	41 nM	6.60	100 nM	300 nM						
COc1ccc(OC)c(Nc2ncnc3sccc23)c1 [Example 5, N-(2,5-Dimethoxyphenyl)thieno[2,3-d]pyrimidin-4-amine hydrochloride]				6.83	6.53				< 5.00			< 5.00			> 10000 nM	300 nM	< 5.00	200 nM	> 10000 nM	> 10000 nM
COc1cc(N=[N+]=[N-])cc(Nc2ncnc3ccsc23)c1 [Example 71, N-(3-Azido-5-methoxyphenyl)thieno[3,2-d]pyrimidin-4-amine]	305 nM	157 nM	1670 nM		6.68	208 nM	385 nM	218 nM	6.84	796 nM	92 nM	6.58	200 nM	300 nM						
COc1ccc(OC)c(Nc2nc(C)nc3scc(C)c23)c1 [Example 7, N-(2,5-Dimethoxyphenyl)-2,5-dimethylthieno[2,3-d]pyrimidin-4-amine hydrochloride]				< 5.00	< 5.00				< 5.00			< 5.00					< 5.00			
CCOC(=O)C=Cc1ccc(Nc2ncnc3ccsc23)cc1 [Example 33, 3-[4-(Thieno[3,2-d]pyrimidin-4-ylamino)-phenyl]acrylic acid ethyl ester]				< 5.00	< 5.00				< 5.00			< 5.00					< 5.00			
COc1ccc(Nc2ncnc3ccsc23)c(OC)c1 [Example 8, N-(2,4-Dimethoxyphenyl)thieno[3,2-d]pyrimidin-4-amine hydrochloride]				< 5.00	< 5.00				< 5.00			< 5.00					< 5.00			
CCOc1ccc(OCC)c(Nc2ncnc3ccsc23)c1 [Example 36, N-(2,5-Diethoxyphenyl)thieno[3,2-d]pyrimidin-4-amine]				< 5.00	6.06				< 5.00			5.29					5.29			
Oc1cc(O)cc(Nc2ncnc3ccsc23)c1 [Example 43, N-(3,5-Dihydroxyphenyl)thieno[3,2-d]pyrimidin-4-amine]				< 5.00	< 5.00				< 5.00			< 5.00					< 5.00			
COc1ccc(OC)c(Nc2nc(C)nc3sc(C)c(C)c23)c1 [Example 29, N-(2,5-Dimethoxy-phenyl)-2,5,6-trimethylthieno[2,3-d]pyrimidin-4-amine hydrochloride]				< 5.00	< 5.00				< 5.00			< 5.00					< 5.00			
COc1cc(Nc2nc(C)nc3ccsc23)cc(OC)c1 [Example 54, N-(3,5-Dimethoxyphenyl)-2-methylthieno[3,2-d]pyrimidin-4-amine]	1070 nM	1100 nM	100 nM	7.57	7.52	40 nM	788 nM	1050 nM	7.21	2000 nM	121 nM	6.59		6580 nM						

— patent US20070099877A1, “N-aryl-thienopyrimidin-4-amines and analogs as activators of caspases and inducers of apoptosis and the use thereof” (Cytovia, Inc., priority 2005, published 2007)
